Experiments:
Experiment in all cases: DSF thermal shift, kinase panel
Assay type in all cases: binding
Conditions in all cases: 10 μM compound
BMP2K = molecular target: T1, BMP2K (Homo sapiens, UniProt Q9NSY1)
T1 construct: purchased in-house (home-made panel, SGC-style construct names)
Summary of the method: (§1)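 Read-out is melting temperature shift (dTm), derived by Boltzmann fitting of fluorescence melt curves and referenced to protein/dye with 0.2% DMSO. Kinase 1 µM, compound 10 µM, phosphate buffer pH 7.5 with NaCl and glycerol; ramp 25→95 °C at 0.05 °C/s.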

CDKL1 = molecular target: T2, CDKL1 (Homo sapiens, UniProt Q00532)
T2 construct: purchased in-house (home-made panel, SGC-style construct names)
Summary of the method: as §1

MAP2K7A = molecular target: T3, MAP2K7A (Homo sapiens, UniProt O14733)
T3 construct: purchased in-house (home-made panel, SGC-style construct names)
T3 sequence (O14733 1-419): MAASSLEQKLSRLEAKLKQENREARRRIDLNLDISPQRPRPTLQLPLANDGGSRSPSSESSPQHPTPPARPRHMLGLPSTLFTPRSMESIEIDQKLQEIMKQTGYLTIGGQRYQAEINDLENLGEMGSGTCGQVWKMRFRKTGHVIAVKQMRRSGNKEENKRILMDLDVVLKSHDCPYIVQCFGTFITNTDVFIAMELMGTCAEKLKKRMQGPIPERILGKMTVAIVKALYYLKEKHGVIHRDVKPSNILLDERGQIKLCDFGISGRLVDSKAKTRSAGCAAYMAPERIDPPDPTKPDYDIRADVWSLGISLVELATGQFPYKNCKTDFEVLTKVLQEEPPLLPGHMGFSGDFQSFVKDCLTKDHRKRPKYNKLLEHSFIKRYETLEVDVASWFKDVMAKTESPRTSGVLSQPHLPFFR
Summary of the method: as §1

PKMYT1A = molecular target: T4, PKMYT1A (Homo sapiens, UniProt Q99640)
T4 construct: purchased in-house (home-made panel, SGC-style construct names)
T4 sequence (Q99640 1-499): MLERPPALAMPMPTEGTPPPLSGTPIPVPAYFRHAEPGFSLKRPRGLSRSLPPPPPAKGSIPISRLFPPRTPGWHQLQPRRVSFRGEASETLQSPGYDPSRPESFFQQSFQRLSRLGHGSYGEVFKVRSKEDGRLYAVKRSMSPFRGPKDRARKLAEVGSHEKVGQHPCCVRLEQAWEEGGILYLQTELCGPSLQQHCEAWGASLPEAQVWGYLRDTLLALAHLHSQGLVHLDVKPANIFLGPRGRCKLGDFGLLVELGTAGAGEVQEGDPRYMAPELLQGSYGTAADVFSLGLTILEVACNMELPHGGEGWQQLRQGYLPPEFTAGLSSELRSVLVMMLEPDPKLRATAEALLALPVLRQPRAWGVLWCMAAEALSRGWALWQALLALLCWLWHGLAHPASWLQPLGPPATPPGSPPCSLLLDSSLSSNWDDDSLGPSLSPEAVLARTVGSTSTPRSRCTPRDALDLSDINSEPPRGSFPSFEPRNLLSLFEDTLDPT
Summary of the method: as §1

RPS6KA6A = molecular target: T5, RPS6KA6A (Homo sapiens, UniProt Q9UK32)
T5 construct: purchased in-house (home-made panel, SGC-style construct names)
T5 sequence (Q9UK32 whole entry): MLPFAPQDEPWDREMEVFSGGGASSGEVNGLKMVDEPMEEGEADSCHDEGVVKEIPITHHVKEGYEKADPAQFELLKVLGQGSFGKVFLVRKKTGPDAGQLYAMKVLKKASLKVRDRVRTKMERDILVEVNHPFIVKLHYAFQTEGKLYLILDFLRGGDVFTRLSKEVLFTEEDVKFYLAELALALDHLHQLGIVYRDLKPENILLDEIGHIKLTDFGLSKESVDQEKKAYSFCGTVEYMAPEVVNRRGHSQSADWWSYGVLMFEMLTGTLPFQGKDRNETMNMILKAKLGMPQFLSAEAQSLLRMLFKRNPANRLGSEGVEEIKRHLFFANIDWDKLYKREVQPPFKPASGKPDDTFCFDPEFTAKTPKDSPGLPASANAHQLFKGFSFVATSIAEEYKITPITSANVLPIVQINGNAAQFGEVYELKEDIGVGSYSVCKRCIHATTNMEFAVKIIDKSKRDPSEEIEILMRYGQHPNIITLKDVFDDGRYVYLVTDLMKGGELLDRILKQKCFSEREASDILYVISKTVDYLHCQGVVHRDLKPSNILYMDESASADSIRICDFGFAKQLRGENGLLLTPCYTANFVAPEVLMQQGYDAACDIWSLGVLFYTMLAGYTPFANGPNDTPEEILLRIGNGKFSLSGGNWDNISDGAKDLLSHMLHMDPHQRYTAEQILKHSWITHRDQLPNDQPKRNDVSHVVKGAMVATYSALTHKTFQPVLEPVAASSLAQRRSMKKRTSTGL
Summary of the method: as §1

SLKA = molecular target: T6, SLKA (Homo sapiens, UniProt Q9H2G2)
T6 construct: purchased in-house (home-made panel, SGC-style construct names)
T6 sequence (Q9H2G2 whole entry): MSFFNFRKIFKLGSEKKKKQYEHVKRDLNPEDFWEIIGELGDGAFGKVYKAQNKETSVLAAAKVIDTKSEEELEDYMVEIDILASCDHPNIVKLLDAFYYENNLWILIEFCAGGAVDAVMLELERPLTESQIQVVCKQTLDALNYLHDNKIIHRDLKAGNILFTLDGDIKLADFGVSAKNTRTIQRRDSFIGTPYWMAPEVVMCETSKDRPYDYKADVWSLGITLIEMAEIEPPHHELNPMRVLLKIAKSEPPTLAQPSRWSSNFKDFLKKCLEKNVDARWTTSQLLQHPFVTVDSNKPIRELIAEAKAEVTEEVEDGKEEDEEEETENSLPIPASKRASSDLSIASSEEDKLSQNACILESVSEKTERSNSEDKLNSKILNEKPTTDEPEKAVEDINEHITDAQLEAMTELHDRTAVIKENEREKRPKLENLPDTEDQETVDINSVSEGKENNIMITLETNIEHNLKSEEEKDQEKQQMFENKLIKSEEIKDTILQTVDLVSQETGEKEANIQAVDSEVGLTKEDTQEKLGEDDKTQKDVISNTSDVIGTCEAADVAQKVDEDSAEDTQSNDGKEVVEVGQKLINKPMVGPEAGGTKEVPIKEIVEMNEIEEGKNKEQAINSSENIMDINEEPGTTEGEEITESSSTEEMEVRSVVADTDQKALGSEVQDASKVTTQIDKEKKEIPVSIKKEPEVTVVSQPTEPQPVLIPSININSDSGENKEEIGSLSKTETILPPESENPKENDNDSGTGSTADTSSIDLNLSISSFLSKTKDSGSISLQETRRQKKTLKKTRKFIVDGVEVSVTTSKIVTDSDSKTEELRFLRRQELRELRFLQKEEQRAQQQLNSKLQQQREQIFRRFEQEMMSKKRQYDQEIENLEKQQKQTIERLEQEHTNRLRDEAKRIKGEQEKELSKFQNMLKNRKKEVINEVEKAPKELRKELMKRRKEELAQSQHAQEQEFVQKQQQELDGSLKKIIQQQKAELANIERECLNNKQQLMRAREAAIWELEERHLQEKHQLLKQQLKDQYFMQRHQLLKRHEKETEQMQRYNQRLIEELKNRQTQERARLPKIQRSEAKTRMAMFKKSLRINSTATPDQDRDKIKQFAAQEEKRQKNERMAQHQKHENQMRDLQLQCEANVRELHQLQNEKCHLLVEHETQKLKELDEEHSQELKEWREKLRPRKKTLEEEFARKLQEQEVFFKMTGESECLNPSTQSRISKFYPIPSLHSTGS
Summary of the method: as §1

SRPK2A = molecular target: T7, SRPK2A (Homo sapiens, UniProt P78362)
T7 construct: purchased in-house (home-made panel, SGC-style construct names)
T7 sequence (P78362 whole entry): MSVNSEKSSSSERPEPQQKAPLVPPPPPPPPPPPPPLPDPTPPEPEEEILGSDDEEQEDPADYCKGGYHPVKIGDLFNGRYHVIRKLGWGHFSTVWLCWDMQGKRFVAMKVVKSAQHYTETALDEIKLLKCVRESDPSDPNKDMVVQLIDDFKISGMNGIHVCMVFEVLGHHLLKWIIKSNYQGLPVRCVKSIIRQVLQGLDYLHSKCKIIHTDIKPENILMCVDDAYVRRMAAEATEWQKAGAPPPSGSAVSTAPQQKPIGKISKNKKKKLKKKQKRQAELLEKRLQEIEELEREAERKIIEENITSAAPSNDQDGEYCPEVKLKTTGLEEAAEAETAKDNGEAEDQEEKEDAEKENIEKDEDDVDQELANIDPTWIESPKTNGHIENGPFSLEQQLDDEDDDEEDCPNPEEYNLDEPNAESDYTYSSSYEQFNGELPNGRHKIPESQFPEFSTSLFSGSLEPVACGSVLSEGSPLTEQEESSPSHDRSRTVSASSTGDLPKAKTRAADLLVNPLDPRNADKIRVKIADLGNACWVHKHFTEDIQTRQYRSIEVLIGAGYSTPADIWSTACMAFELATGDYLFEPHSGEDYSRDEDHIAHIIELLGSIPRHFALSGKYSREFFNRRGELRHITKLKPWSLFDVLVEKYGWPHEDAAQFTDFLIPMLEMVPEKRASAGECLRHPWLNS
Summary of the method: as §1

STK24A = molecular target: T8, STK24A (Homo sapiens, UniProt Q9Y6E0)
T8 construct: TEV-cleavable (cleaved yes); made in house; host or cells: E. coli
T8 sequence (Q9Y6E0 whole entry): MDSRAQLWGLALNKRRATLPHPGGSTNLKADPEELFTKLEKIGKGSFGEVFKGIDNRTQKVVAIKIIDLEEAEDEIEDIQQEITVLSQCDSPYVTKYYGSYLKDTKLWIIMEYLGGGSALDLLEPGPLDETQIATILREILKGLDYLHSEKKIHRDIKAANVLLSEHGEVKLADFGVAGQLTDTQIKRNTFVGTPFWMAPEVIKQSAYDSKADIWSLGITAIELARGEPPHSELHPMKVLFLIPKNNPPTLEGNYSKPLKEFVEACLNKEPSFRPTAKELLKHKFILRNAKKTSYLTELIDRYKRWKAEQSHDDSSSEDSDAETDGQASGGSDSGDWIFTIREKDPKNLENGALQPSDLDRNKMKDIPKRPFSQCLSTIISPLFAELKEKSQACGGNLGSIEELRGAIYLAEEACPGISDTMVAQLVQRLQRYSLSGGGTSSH
Summary of the method: as §1

STK38LA = molecular target: T9, STK38LA (Homo sapiens, UniProt Q9Y2H1)
T9 construct: TEV-cleavable (cleaved yes); made in house; host or cells: E. coli
T9 sequence (Q9Y2H1 whole entry): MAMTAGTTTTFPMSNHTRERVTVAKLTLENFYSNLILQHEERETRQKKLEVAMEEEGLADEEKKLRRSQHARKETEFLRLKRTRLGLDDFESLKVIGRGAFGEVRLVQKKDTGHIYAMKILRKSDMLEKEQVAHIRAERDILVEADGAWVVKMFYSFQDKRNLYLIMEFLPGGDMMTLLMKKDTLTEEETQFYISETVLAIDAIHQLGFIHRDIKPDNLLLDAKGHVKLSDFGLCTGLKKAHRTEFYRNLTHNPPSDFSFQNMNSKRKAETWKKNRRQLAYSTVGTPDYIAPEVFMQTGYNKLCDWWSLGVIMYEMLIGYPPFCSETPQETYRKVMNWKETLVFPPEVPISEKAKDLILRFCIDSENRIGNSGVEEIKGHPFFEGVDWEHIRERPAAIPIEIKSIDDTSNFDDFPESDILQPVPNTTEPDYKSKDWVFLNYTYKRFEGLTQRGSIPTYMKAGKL
Summary of the method: as §1

STK6A = molecular target: T10, STK6A (Homo sapiens, UniProt O14965)
T10 construct: TEV-cleavable (cleaved yes); made in house; host or cells: E. coli
T10 sequence (O14965 1-403): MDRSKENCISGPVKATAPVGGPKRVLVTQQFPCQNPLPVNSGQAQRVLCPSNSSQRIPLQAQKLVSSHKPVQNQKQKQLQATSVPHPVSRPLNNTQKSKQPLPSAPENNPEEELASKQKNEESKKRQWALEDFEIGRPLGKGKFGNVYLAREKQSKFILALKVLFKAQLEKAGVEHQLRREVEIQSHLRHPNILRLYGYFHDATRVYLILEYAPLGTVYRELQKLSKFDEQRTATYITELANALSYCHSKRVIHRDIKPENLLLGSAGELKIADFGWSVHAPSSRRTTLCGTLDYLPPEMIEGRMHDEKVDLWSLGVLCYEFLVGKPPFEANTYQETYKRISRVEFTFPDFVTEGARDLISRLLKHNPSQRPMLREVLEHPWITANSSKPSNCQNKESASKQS
Summary of the method: as §1

T1 sequence (Q9NSY1 whole entry): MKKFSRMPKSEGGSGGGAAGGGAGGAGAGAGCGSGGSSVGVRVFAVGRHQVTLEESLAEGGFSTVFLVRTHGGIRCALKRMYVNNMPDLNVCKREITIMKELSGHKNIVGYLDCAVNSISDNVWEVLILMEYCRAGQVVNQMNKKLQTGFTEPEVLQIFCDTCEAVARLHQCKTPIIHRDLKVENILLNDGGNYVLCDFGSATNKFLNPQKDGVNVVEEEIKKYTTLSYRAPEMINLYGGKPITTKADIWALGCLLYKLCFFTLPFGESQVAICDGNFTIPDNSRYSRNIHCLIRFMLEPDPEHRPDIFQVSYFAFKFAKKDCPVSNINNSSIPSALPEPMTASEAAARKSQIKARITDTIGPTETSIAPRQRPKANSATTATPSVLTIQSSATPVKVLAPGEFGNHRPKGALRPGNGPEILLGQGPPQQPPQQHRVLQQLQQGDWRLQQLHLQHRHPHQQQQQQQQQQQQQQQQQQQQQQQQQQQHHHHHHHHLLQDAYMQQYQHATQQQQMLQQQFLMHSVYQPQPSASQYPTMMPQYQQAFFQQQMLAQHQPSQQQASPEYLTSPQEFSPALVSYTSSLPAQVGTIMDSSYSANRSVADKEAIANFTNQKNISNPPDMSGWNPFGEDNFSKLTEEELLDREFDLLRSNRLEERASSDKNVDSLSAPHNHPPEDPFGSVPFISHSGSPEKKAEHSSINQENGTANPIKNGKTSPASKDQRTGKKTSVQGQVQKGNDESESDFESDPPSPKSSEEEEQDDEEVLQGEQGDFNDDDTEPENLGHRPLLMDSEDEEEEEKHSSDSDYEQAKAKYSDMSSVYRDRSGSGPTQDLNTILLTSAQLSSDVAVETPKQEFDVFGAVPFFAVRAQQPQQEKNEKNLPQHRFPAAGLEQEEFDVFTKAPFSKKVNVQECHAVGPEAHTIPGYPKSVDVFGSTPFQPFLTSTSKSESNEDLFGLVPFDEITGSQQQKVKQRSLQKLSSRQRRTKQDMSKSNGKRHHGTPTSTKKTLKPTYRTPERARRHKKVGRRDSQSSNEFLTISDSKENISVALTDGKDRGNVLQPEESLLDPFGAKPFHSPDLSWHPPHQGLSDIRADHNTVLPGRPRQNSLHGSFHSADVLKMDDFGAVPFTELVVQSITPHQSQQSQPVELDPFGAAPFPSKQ

SMILES	ΔTm at 10 µM (BMP2K)	ΔTm at 10 µM (CDKL1)	ΔTm at 10 µM (MAP2K7A)	ΔTm at 10 µM (PKMYT1A)	ΔTm at 10 µM (RPS6KA6A)	ΔTm at 10 µM (SLKA)	ΔTm at 10 µM (SRPK2A)	ΔTm at 10 µM (STK24A)	ΔTm at 10 µM (STK38LA)	ΔTm at 10 µM (STK6A)
CNC(=O)c1ccccc1Nc1nsnc(Nc2cccc(CS(C)(=O)=O)c2)c1=O [Compound 4, N-Methyl-2-([5-({3-[(methylsulfonyl)methyl]phenyl}amino)-4-oxo-4H-1,2,6-thiadiazin-3-yl]-amino}-benzamide]	-0.1 °C	0.5 °C	0.6 °C	-0.3 °C	-0.3 °C	-0.8 °C	-0.3 °C	0 °C	0.4 °C	-0.1 °C
CNC(=O)c1ccccc1Nc1nsnc(Nc2ccc(N3CCOCC3)cc2)c1=O [Compound 5, N-Methyl-2-({5-[(4-morpholinophenyl)amino]-4-oxo-4H-1,2,6-thiadiazin-3-yl}amino)benzamide]	-0.1 °C	0.5 °C	1 °C	-0.8 °C	-0.6 °C	-0.7 °C	-0.1 °C	-1.1 °C	0.3 °C	0.5 °C
Cc1ccc(Nc2nsnc(Nc3ccc(C(N)=O)cc3)c2=O)cc1O [Compound 2, 4-({5-[(3-Hydroxy-4-methylphenyl)amino]-4-oxo-4H-1,2,6-thiadiazin-3-yl}amino)benzamide]	-0.2 °C	1 °C	3.1 °C	3 °C	2.6 °C	-0.1 °C	0.6 °C		0.4 °C	1 °C
Cc1ccc(Nc2nsnc(Nc3ccc4c(c3)CS(=O)(=O)C4)c2=O)cc1O [Compound 3, 3-[(2,2-Dioxido-1,3-dihydrobenzo[c]thiophen-5-yl)amino]-5-[(3-hydroxy-4-methylphenyl)amino]-4H-1,2,6-thiadiazin-4-one]	0.1 °C	0.9 °C	3.2 °C	1.2 °C	0.9 °C	-0.2 °C	0.1 °C	-0.3 °C	0.8 °C	0.1 °C
Cc1ccc(Nc2nsnc(Nc3cccc(C(N)=O)c3)c2=O)cc1O [Compound 1, 3-({5-[(3-Hydroxy-4-methylphenyl)amino]-4-oxo-4H-1,2,6-thiadiazin-3-yl}amino)benzamide]	-0.4 °C	1.2 °C	1.1 °C	0 °C	0.5 °C	-0.6 °C	-0.2 °C	-0.1 °C	0.2 °C	-0.3 °C
